PMC5513037, “Examining the influence of specificity ligands and ATP-competitive ligands on the overall effectiveness of bivalent kinase inhibitors” (Proteome Science, 2017)

Tests used:
SCYL1 [1] = target: T1, SCYL1 (Homo sapiens, UniProt Q96KG9); test: biochemical
T1 sequence (Q96KG9 1-808): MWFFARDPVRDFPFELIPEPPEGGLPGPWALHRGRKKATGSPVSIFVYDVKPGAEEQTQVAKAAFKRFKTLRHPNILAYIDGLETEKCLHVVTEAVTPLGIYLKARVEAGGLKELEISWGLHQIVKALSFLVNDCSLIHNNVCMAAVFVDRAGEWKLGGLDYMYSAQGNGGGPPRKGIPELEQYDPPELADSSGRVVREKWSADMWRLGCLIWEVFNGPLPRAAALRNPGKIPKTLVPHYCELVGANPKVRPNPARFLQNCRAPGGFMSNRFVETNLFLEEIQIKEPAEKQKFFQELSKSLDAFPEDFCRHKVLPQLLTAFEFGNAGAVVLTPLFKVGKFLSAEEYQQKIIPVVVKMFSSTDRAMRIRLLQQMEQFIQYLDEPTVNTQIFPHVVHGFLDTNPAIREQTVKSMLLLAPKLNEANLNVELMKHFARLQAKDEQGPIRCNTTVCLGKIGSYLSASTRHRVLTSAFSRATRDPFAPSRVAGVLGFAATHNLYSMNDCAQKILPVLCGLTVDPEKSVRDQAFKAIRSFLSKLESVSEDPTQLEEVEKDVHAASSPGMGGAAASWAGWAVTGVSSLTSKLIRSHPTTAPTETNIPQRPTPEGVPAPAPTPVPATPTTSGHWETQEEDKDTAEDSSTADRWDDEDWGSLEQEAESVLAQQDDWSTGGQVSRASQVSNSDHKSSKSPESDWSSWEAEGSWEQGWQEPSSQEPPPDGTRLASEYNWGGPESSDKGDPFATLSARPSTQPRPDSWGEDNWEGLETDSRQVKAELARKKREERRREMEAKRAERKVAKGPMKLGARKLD
Excerpt: Data were visualized for further analysis using Spotfire DXP.

NEK1 = target: T2, NEK1 (Homo sapiens, UniProt Q96PY6); test: KAM-matrix competition in K562 lysate; assay type: binding
T2 construct: endogenous in cells; host or cells: K562
T2 sequence (Q96PY6 1-1258): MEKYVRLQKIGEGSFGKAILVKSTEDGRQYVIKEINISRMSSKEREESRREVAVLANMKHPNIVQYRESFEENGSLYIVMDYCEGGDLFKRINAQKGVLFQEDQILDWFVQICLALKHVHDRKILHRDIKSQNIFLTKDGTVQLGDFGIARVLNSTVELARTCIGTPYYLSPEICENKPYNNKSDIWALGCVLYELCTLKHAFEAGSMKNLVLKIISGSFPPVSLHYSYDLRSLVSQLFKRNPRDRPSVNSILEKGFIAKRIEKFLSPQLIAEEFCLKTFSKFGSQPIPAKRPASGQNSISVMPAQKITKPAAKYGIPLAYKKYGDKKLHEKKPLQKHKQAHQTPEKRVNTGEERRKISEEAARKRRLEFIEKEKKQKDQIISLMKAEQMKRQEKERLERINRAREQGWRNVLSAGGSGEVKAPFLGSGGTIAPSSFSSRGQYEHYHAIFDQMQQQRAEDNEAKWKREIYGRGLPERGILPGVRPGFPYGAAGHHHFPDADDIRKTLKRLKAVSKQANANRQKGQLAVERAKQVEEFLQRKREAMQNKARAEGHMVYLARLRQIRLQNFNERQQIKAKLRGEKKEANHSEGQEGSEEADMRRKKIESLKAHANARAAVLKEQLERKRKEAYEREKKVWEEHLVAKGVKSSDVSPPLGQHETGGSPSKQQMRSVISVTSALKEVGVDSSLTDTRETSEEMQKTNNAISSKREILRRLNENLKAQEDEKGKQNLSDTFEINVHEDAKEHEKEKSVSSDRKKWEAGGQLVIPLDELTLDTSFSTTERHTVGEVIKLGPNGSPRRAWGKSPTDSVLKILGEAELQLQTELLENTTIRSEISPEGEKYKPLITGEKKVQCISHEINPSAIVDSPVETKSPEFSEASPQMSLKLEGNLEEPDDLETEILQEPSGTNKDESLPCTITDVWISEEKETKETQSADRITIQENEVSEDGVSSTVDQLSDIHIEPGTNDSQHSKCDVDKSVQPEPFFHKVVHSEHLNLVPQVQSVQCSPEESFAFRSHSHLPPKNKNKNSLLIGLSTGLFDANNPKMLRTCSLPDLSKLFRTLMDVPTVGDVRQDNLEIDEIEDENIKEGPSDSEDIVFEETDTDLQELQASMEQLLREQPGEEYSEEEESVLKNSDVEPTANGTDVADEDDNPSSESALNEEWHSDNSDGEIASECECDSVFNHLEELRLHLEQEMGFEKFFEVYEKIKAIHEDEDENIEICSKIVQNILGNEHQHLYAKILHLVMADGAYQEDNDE
Protocol: (§1) Supplement 12953_2017_125_MOESM1_ESM.zip/MS_Supp Info.xlsx, sheet "KAM" | column: 10 uM KAM; 1 uM KAM; 0.1 uM KAM; 0.01 uM KAM; 0.001 uM KAM; RB50

SCYL1 [2] = target: T1, SCYL1; test: KAM-matrix competition in K562 lysate; assay type: binding; parameters: endogenous in cells; host or cells: K562;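 for 0.001 uM KAM: median log10 fold change of treatment over DMSO control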;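 for 0.01 uM KAM: median log10 fold change of treatment over DMSO control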;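 for 0.1 uM KAM: median log10 fold change of treatment over DMSO control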;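 for 1 uM KAM: median log10 fold change of treatment over DMSO control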;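 for 10 uM KAM: median log10 fold change of treatment over DMSO control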
Protocol: as §1

| IC50 (SCYL1 [1]) [µM] | SMILES | median Log10 fold change (NEK1; 0.001 uM KAM) | median Log10 fold change (NEK1; 0.01 uM KAM) | median Log10 fold change (NEK1; 0.1 uM KAM) | median Log10 fold change (NEK1; 1 uM KAM) | median Log10 fold change (NEK1; 10 uM KAM) | IC50 (NEK1; read-out: RB50 (the source's name)) [µM] | IC50 (SCYL1 [2]; KAM 0.001-10 uM, read-out: RB50 (the source's name)) [µM] | 0.001 uM KAM (SCYL1 [2]; relative to 0 uM KAM = 0) | 0.01 uM KAM (SCYL1 [2]; relative to 0 uM KAM = 0) | 0.1 uM KAM (SCYL1 [2]; relative to 0 uM KAM = 0) | 1 uM KAM (SCYL1 [2]; relative to 0 uM KAM = 0) | 10 uM KAM (SCYL1 [2]; relative to 0 uM KAM = 0) |
| --- | --- | --- | --- | --- | --- | --- | --- | --- | --- | --- | --- | --- | --- |
| > 10 | Cc1ccc(NC(=O)c2ccc(CN3CCN(C)CC3)cc2)cc1Nc1nccc(-c2cccnc2)n1 [Imatinib] |  |  |  |  |  |  |  |  |  |  |  |  |
|  | N#CCc1ccc(Nc2nc(NCCCN)cc(Nc3cc(C4CC4)[nH]n3)n2)cc1 [KAM] | -0.02178 | -0.02485 | -0.1728 | -0.239 | -0.318 | 3.39 | > 10 | 0.01527 | 0.01732 | 0.09163 | 0.1255 | 0.1065 |
